Test results reported in US8378117B2 (priority 2005, dated 2013).
Like-named read-outs stand apart in the source and are kept apart here.

How the values were obtained:
CB2 receptor = target: T1, CB2 receptor (Homo sapiens, UniProt P34972); assay: Binding assay for CB2 agonists or inverse agonists (SK-N-MC membranes, [3H]-CP-55,940); conditions: for CB2 receptor binding percent inhibition: test concentration not stated; for IC50: Cannabinoid CB2 Receptor Binding IC50, calculated by linear regression from percent inhibition at various test concentrations; for inhibition at 0.25 µM: test concentration 0.25 μM (footnote 8)
T1 construct: expressed in transfected cells
Method in brief: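 IC50 came from percent-inhibition data over several compound concentrations, fitted by linear regression. Binding used semi-purified membranes of human CB2-transfected SK-N-MC cells, 90 min at 30 °C, pH 7.5 Tris-HCl with MgCl2, EDTA and BSA, then filtration and scintillation counting.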

CB1 receptor = target: T2, CB1 receptor (Homo sapiens, UniProt P21554); assay: Binding assay for CB1 agonists or inverse agonists (SK-N-MC membranes, [3H]-CP-55,940); conditions: for CB1 receptor binding average percent inhibition: value shown is an average percent inhibition (footnote 5), concentration not given; for inhibition at 0.25 µM: read-out: CB1 receptor binding percent inhibition, test concentration 0.25 μM (footnote 8); for inhibition at 1 µM: read-out: CB1 receptor binding percent inhibition, test concentration 1 μM (footnote 1); for inhibition at 0.5 µM: read-out: CB1 receptor binding percent inhibition, test concentration 0.5 μM (footnote 10)
T2 construct: expressed in transfected cells
Method in brief: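 Radioligand displacement: [3H]-CP-55,940 at […], 90 min at 30° C, pH 7.5 Tris buffer with 0.5 mg/mL fatty-acid-free BSA, using semi-purified membranes of human-CB1-transfected SK-N-MC cells. Bound counts collected on GF/C filters, 10 uM WIN 55,212 for non-specific; IC50 from percent inhibition over several concentrations.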

[1] = calculated by linear regression from percent inhibition at various test concentrations, read-out: Cannabinoid CB1 Receptor Binding IC50
[2] = read-out: CB2 receptor binding percent inhibition

T1 sequence (P34972 whole entry): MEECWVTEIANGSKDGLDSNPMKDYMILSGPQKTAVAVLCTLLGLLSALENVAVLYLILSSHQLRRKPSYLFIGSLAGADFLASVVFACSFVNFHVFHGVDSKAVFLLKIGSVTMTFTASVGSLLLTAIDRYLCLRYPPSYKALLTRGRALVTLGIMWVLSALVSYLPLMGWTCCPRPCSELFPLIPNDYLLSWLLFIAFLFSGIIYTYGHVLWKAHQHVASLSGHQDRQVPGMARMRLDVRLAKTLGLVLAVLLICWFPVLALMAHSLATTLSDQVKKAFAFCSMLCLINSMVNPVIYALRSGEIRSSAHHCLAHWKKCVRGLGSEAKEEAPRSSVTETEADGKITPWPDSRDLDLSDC
T2 sequence (P21554 whole entry): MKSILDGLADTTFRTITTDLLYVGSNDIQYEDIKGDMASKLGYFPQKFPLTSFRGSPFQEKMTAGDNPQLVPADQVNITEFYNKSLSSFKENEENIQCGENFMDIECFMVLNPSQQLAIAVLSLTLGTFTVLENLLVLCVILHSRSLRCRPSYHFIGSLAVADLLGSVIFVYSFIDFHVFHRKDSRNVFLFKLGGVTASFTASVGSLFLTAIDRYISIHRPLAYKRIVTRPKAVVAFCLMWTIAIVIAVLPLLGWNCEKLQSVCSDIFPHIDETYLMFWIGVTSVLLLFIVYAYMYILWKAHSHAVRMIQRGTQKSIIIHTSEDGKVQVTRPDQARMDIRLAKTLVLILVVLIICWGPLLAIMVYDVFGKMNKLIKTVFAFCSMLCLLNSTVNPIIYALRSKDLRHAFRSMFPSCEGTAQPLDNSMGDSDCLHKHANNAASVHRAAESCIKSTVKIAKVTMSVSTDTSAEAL

C[C@H](NC(=O)c1nn(-c2ccc(Cl)cc2Cl)c2c1CCCCC2Cc1ccc(Cl)cc1)c1ccccc1 (stereo partly drawn) [Cpd 76, 8-(4-chloro-benzyl)-1-(2,4-dichloro-phenyl)-1,4,5,6,7,8-hexahydro-cycloheptapyrazole-3-carboxylic acid [(1S)-1-phenyl-ethyl]-amide]
CB2 receptor binding percent inhibition (CB2 receptor): 38%
CB1 receptor binding average percent inhibition (CB1 receptor): ^(5)44%

COC(=O)[C@@H](Cc1ccc(O)cc1)NC(=O)c1nn(C2CCCCC2)c2c1CCCCC2Cc1cccc(F)c1 (stereo partly drawn) [Cpd 82, (2R)-2-{[1-cyclohexyl-8-(3-fluoro-benzyl)-1,4,5,6,7,8-hexahydro-cycloheptapyrazole-3-carbonyl]-amino}-3-(4-hydroxy-phenyl)-propionic acid methyl ester]
IC50 (CB2 receptor): 60 nM
CB2 receptor binding average percent inhibition (CB2 receptor; value shown is an average percent inhibition (footnote 5), concentration not given): 88%
IC50 (CB1 receptor; [1]): 1000 nM
CB1 receptor binding average percent inhibition (CB1 receptor): 46%

O=C(NCC(F)(F)F)c1nn(Cc2ccccc2)c2c1CCCCC2c1ccccc1 (centres unmarked) [Cpd 86, 1-benzyl-8-phenyl-1,4,5,6,7,8-hexahydro-cycloheptapyrazole-3-carboxylic acid (2,2,2-trifluoro-ethyl)-amide]
inhibition at 0.25 µM (CB2 receptor; [2]): 22%
inhibition at 0.25 µM (CB1 receptor): 0%

COC(=O)[C@@H](Cc1ccc(F)cc1)NC(=O)c1nn(Cc2ccccc2)c2c1CCCCC2c1ccccc1 (stereo partly drawn) [Cpd 87, (2R)-2-[(1-benzyl-8-phenyl-1,4,5,6,7,8-hexahydro-cycloheptapyrazole-3-carbonyl)-amino]-3-(4-fluoro-phenyl)-propionic acid methyl ester]
inhibition at 0.25 µM (CB2 receptor; [2]): 0%
inhibition at 0.25 µM (CB1 receptor): 4%

CCOC(=O)[C@H]1C2C=CC(C2)[C@H]1NC(=O)c1nn(C2CCCCC2)c2c1CCCCC2Cc1ccc(F)cc1 (stereo partly drawn) [Cpd 88, (2S,3R)-3-{[1-cyclohexyl-8-(4-fluoro-benzyl)-1,4,5,6,7,8-hexahydro-cycloheptapyrazole-3-carbonyl]-amino}-bicyclo[2.2.1]hept-5-ene-2-carboxylic acid ethyl ester]
CB2 receptor binding percent inhibition (CB2 receptor): 32%
inhibition at 1 µM (CB1 receptor): 2%

O=C(NN1CCOCC1)c1nn(C2CCCCC2)c2c1CCCCC2Cc1ccc(F)cc1 (centres unmarked) [Cpd 89, 1-cyclohexyl-8-(4-fluoro-benzyl)-1,4,5,6,7,8-hexahydro-cycloheptapyrazole-3-carboxylic acid morpholin-4-ylamide]
CB2 receptor binding percent inhibition (CB2 receptor): 0%
inhibition at 1 µM (CB1 receptor): 11%

O=C(NN1CCOCC1)c1nn(C2CCCCC2)c2c1CCCCC2Cc1cccc(F)c1 (centres unmarked) [Cpd 90, 1-cyclohexyl-8-(3-fluoro-benzyl)-1,4,5,6,7,8-hexahydro-cycloheptapyrazole-3-carboxylic acid morpholin-4-ylamide]
CB2 receptor binding percent inhibition (CB2 receptor): 2%
inhibition at 1 µM (CB1 receptor): 1%

COC(=O)[C@@H](Cc1ccc(O)cc1)NC(=O)c1nn(-c2ccc(F)cc2F)c2c1CCCCC2Cc1cccc(F)c1 (stereo partly drawn) [Cpd 95, (2R)-2-{[1-(2,4-difluoro-phenyl)-8-(3-fluoro-benzyl)-1,4,5,6,7,8-hexahydro-cycloheptapyrazole-3-carbonyl]-amino}-3-(4-hydroxy-phenyl)-propionic acid methyl ester]
CB2 receptor binding percent inhibition (CB2 receptor): 35%
inhibition at 1 µM (CB1 receptor): 36%

CC12CCC(C1)C(C)(C)[C@H]2NC(=O)c1nn(-c2ccc(F)cc2F)c2c1CCCCC2Cc1ccc(F)cc1 (stereo partly drawn) [Cpd 97, 1-(2,4-difluoro-phenyl)-8-(4-fluoro-benzyl)-1,4,5,6,7,8-hexahydro-cycloheptapyrazole-3-carboxylic acid [(2S)-1,3,3-trimethyl-bicyclo[2.2.1]hept-2-yl]-amide]
IC50 (CB2 receptor): 300 nM
inhibition at 1 µM (CB2 receptor; read-out: CB2 receptor binding percent inhibition, test concentration 1 μM (footnote 1)): 71%
inhibition at 1 µM (CB1 receptor): 38%

COC(=O)[C@@H](Cc1ccc(O)cc1)NC(=O)c1nn(-c2ccc(F)cc2F)c2c1CCCCC2Cc1ccc(F)cc1 (stereo partly drawn) [Cpd 98, (2R)-2-{[1-(2,4-difluoro-phenyl)-8-(4-fluoro-benzyl)-1,4,5,6,7,8-hexahydro-cycloheptapyrazole-3-carbonyl]-amino}-3-(4-hydroxy-phenyl)-propionic acid methyl ester]
CB2 receptor binding percent inhibition (CB2 receptor): 43%
inhibition at 1 µM (CB1 receptor): 51%

O=C(N[C@@H]1c2ccccc2C[C@@H]1O)c1nn(-c2ccc(F)cc2F)c2c1CCCCC2Cc1cccc(F)c1 (stereo partly drawn) [Cpd 100, 1-(2,4-difluoro-phenyl)-8-(3-fluoro-benzyl)-1,4,5,6,7,8-hexahydro-cycloheptapyrazole-3-carboxylic acid [(1R,2S)-2-hydroxy-indan-1-yl]-amide]
CB2 receptor binding percent inhibition (CB2 receptor): 9%
inhibition at 1 µM (CB1 receptor): 31%

C[C@H](NS(=O)(=O)/C=C/c1nn(C)c2c1CCCCC2Cc1ccc(F)cc1)c1ccccc1 (stereo partly drawn) [Cpd 101, (2E)-2-[8-(4-fluoro-benzyl)-1-methyl-1,4,5,6,7,8-hexahydro-cycloheptapyrazol-3-yl]-ethenesulfonic acid [(1S)-1-phenyl-ethyl]-amide]
IC50 (CB2 receptor): 40 nM
inhibition at 1 µM (CB2 receptor; test concentration 1 μM (footnote 1), read-out: CB2 receptor binding percent inhibition): 97%
inhibition at 1 µM (CB1 receptor): 28%

COC(=O)[C@@H](Cc1ccc(F)cc1)NC(=O)c1nn(-c2ccc(Cl)cc2Cl)c2c1CCCCC2Cc1cccc(Cl)c1 (stereo partly drawn) [Cpd 103, (2R)-2-{[8-(3-chloro-benzyl)-1-(2,4-dichloro-phenyl)-1,4,5,6,7,8-hexahydro-cycloheptapyrazole-3-carbonyl]-amino}-3-(4-fluoro-phenyl)-propionic acid methyl ester]
CB2 receptor binding percent inhibition (CB2 receptor): 57%
IC50 (CB1 receptor; Cannabinoid CB1 Receptor Binding IC50, calculated by linear regression from percent inhibition at various test concentrations): 300 nM
inhibition at 0.5 µM (CB1 receptor): 56%
inhibition at 1 µM (CB1 receptor): 76%

CCOC(=O)[C@@H]1C2CCC(C2)[C@@H]1NC(=O)c1nn(C2CCCCC2)c2c1CCCCC2Cc1cccc(F)c1 (stereo partly drawn) [Cpd 105, (2R,3S)-3-{[1-cyclohexyl-8-(3-fluoro-benzyl)-1,4,5,6,7,8-hexahydro-cycloheptapyrazole-3-carbonyl]-amino}-bicyclo[2.2.1]heptane-2-carboxylic acid ethyl ester]
CB2 receptor binding percent inhibition (CB2 receptor): 82%
inhibition at 1 µM (CB1 receptor): 2%

CCOC(=O)[C@@H]1C2CCC(C2)[C@@H]1NC(=O)c1nn(C2CCCCC2)c2c1CCCCC2Cc1ccc(F)cc1 (stereo partly drawn) [Cpd 106, (2R,3S)-3-{[1-cyclohexyl-8-(4-fluoro-benzyl)-1,4,5,6,7,8-hexahydro-cycloheptapyrazole-3-carbonyl]-amino}-bicyclo[2.2.1]heptane-2-carboxylic acid ethyl ester]
CB2 receptor binding percent inhibition (CB2 receptor): 95%
inhibition at 1 µM (CB1 receptor): 45%

CCOC(=O)[C@@H]1C2CCC(C2)[C@@H]1NC(=O)c1nn(-c2ccc(Cl)cc2Cl)c2c1CCCCC2Cc1cccc(Cl)c1 (stereo partly drawn) [Cpd 109, (2R,3S)-3-{[8-(3-chloro-benzyl)-1-(2,4-dichloro-phenyl)-1,4,5,6,7,8-hexahydro-cycloheptapyrazole-3-carbonyl]-amino}-bicyclo[2.2.1]heptane-2-carboxylic acid ethyl ester]
CB2 receptor binding percent inhibition (CB2 receptor): 48%
IC50 (CB1 receptor; [1]): 300 nM
inhibition at 0.5 µM (CB1 receptor): 60%
inhibition at 1 µM (CB1 receptor): 72%

O=C(N[C@@H]1c2ccccc2C[C@@H]1O)c1nn(-c2ccc(F)cc2F)c2c1CCCCC2Cc1ccc(F)cc1 (stereo partly drawn) [Cpd 119, 1-(2,4-difluoro-phenyl)-8-(4-fluoro-benzyl)-1,4,5,6,7,8-hexahydro-cycloheptapyrazole-3-carboxylic acid [(1R,2S)-2-hydroxy-indan-1-yl]-amide]
CB2 receptor binding percent inhibition (CB2 receptor): 38%
inhibition at 1 µM (CB1 receptor): 39%

Cn1nc(/C=C/S(=O)(=O)NN2CCOCC2)c2c1C(Cc1cccc(F)c1)CCCC2 (centres unmarked) [Cpd 125, (2E)-2-[8-(3-fluoro-benzyl)-1-methyl-1,4,5,6,7,8-hexahydro-cycloheptapyrazol-3-yl]-ethenesulfonic acid morpholin-4-ylamide]
CB2 receptor binding percent inhibition (CB2 receptor): 30%
inhibition at 1 µM (CB1 receptor): 0%

Cn1nc(/C=C/S(=O)(=O)NN2CCOCC2)c2c1C(Cc1ccc(F)cc1)CCCC2 (centres unmarked) [Cpd 126, (2E)-2-[8-(4-fluoro-benzyl)-1-methyl-1,4,5,6,7,8-hexahydro-cycloheptapyrazol-3-yl]-ethenesulfonic acid morpholin-4-ylamide]
CB2 receptor binding percent inhibition (CB2 receptor): 65%
inhibition at 1 µM (CB1 receptor): 0%

O=S(=O)(/C=C/c1nn(-c2ccc(F)cc2F)c2c1CCCCC2Cc1ccc(F)cc1)NN1CCOCC1 (centres unmarked) [Cpd 127, (2E)-2-[1-(2,4-difluoro-phenyl)-8-(4-fluoro-benzyl)-1,4,5,6,7,8-hexahydro-cycloheptapyrazol-3-yl]-ethenesulfonic acid morpholin-4-ylamide]
CB2 receptor binding percent inhibition (CB2 receptor): 0%
inhibition at 1 µM (CB1 receptor): 36%

O=C(NCc1ccccc1)c1n[nH]c2c1CCCCC2Cc1ccc(F)cc1 (centres unmarked) [Cpd 129, 8-(4-fluoro-benzyl)-1,4,5,6,7,8-hexahydro-cycloheptapyrazole-3-carboxylic acid benzylamide]
inhibition at 0.25 µM (CB2 receptor; [2]): 86%
inhibition at 0.002 µM (CB1 receptor; read-out: CB1 receptor binding percent inhibition, test concentration 0.002 μM (footnote 11)): 92%
inhibition at 0.008 µM (CB1 receptor; read-out: CB1 receptor binding percent inhibition, test concentration 0.008 μM (footnote 12)): 90%
inhibition at 0.25 µM (CB1 receptor): 100%
CB1 receptor binding percent inhibition (CB1 receptor; test concentration not stated): 94%
